Read-outs that look alike come from different tables or passages of the source.
Legend:
human recombinant BACE1 = human recombinant BACE1 (Homo sapiens (Human), UniProt P56817); assay: In vitro enzymatic BACE1 FRET assay; format: biochemical; conditions: read-out: IC50 IP (μM) BACE1 enzyme
How it was run: (§1)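 Ni-NTA-purified recombinant protease incubated with compound; reaction started with 50 nM FRET peptide substrate (fluorophore/quencher flanking the BACE cleavage site) and run 1 h. Stopped with Tris buffer raising pH to neutral; fluorescence read at ex 488/em 590 nm.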

[1] = test system: Aβ40 in conditioned medium of cells stably expressing Amyloid Precursor Protein (APP); assay: In vitro BACE-1 cell-based assay (Aβ40 sandwich ELISA); conditions: read-out: IC50 IP (μM) BACE1 cell
How it was run: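 APP-expressing cells treated 24 h at 37 °C with compound in 10-point dose response (top 100 μM or 10 μM, 0.1% DMSO final). Secreted Aβ40 in conditioned medium quantified by sandwich ELISA (pAb40 capture, biotinylated 6E10 detection, time-resolved europium fluorescence); IC50 from percent inhibition versus concentration.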

human recombinant BACE2 = human recombinant BACE2 (Homo sapiens (Human), UniProt Q9Y5Z0); assay: In vitro enzymatic BACE2 FRET assay; format: biochemical; conditions: read-out: IC50 IP (μM) BACE2 enzyme
How it was run: as §1

Recombinant Cat D = Recombinant Cat D (Homo sapiens (Human), UniProt P07339); assay: In vitro enzymatic Cathepsin D (Cat D) FRET assay; format: biochemical; conditions: read-out: IC50 IP (μM) CatD
How it was run: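 Cleavage of a 20 nM FRET peptide by CHO-derived Cat D over 1 h at pH 3.5 (citrate buffer with CHAPS, 10% DMSO final). Endpoint fluorescence is read after Tris quench.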

Chain of human recombinant BACE2 (Q9Y5Z0 63-518): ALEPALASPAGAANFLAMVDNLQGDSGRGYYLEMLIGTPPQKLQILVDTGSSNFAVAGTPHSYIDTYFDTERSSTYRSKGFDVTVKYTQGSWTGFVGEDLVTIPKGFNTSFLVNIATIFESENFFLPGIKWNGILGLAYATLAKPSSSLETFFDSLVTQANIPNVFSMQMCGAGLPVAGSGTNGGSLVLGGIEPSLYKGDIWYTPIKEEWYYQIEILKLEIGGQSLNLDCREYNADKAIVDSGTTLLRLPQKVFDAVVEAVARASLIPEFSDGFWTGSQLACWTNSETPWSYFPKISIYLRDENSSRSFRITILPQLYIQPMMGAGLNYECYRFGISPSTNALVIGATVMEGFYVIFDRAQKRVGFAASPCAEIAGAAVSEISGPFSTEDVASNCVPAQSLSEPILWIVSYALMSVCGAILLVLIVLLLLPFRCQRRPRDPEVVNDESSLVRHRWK
Chain of human recombinant BACE1 (P56817 46-501): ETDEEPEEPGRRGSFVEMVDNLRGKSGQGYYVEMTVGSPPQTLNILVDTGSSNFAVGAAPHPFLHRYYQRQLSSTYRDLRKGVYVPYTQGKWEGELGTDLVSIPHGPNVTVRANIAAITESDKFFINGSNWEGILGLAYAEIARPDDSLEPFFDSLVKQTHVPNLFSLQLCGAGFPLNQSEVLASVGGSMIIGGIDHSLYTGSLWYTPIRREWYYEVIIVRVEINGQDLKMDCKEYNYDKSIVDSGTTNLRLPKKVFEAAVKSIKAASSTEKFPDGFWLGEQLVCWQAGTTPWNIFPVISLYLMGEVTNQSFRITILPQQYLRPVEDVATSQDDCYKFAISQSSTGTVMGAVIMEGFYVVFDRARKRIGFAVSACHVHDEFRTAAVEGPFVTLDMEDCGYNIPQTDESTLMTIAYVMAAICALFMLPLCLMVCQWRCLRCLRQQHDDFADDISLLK
Chain of Recombinant Cat D (P07339 65-412): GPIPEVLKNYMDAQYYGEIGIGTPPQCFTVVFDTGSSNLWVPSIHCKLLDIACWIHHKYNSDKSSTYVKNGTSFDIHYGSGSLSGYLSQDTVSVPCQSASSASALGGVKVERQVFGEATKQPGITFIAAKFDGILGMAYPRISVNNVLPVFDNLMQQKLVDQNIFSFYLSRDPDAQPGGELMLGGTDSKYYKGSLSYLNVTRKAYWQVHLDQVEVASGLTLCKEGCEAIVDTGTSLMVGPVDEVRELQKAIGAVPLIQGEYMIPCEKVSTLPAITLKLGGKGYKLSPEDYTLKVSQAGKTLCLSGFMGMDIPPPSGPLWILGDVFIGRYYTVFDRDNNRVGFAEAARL

Row | IC50 (human recombinant BACE1) [nM] | IC50 [1] [µM] | IC50 (human recombinant BACE2) [µM] | IC50 (Recombinant Cat D) [µM] | IC50 (human recombinant BACE1; BACE1 FRET enzyme assay) [nM] | IC50 ([1]; BACE1 cell-based assay) [µM] | IC50 (human recombinant BACE2; BACE2 FRET enzyme assay) [µM] | IC50 (Recombinant Cat D; Cathepsin D FRET enzyme assay) [µM] | Structure (SMILES)
1 | 0.679 | 0.00329 | 0.032 | 175 |  |  |  |  | C[C@]1(c2cc(NC(=O)c3cnc(OCC(F)(F)F)cn3)ccc2F)N=C(N)S[C@@]2(C(=O)NC3CC3(F)F)C[C@H]21 (stereo partly drawn) [Example 982, (1S,5S,6S)-3-amino-N-(2,2-difluorocyclopropyl)-5-(2-fluoro-5-(5-(2,2,2-trifluoroethoxy)pyrazine-2-carboxamido)phenyl)-5-methyl-2-thia-4-azabicyclo[4.1.0]hept-3-ene-1-carboxamide]
2 | 3.85 | 0.000847 | 0.0182 | 115 |  |  |  |  | C[C@]1(c2cc(Nc3ncnc4cc(OCc5ncco5)cnc34)cc(F)c2F)N=C(N)S[C@@]2(C(=O)N3CCCC3)C[C@H]21 [Example 936, N-(3-((1S,5S,6S)-3-amino-5-methyl-1-(1-pyrrolidinylcarbonyl)-2-thia-4-azabicyclo[4.1.0]hept-3-en-5-yl)-4,5-difluorophenyl)-7-(1,3-oxazol-2-ylmethoxy)pyrido[3,2-d]pyrimidin-4-amine]
3 |  |  |  |  | 3.99 | 0.00457 | 0.014 | 227 | C[C@]1(c2cc(Nc3ncnc4cc(C#N)cnc34)cc(F)c2F)N=C(N)S[C@@]2(CO)C[C@H]21 [Example 55, 4-((3-((1S,5S,6S)-3-amino-1-(hydroxymethyl)-5-methyl-2-thia-4-azabicyclo[4.1.0]hept-3-en-5-yl)-4,5-difluorophenyl)amino)pyrido[3,2-d]pyrimidine-7-carbonitrile]
4 | 0.36 | 0.000224 | 0.00165 | 67.5 |  |  |  |  | C#CCOc1cnc(C(=O)Nc2ccc(F)c([C@@]3(C)N=C(N)S[C@@]4(C(=O)N5CCCC5)C[C@H]43)c2)cn1 [Example 633, N-(3-((1S,55,6S)-3-amino-5-methyl-1-(1-pyrrolidinylcarbonyl)-2-thia-4-azabicyclo[4.1.0]hept-3-en-5-yl)-4-fluorophenyl)-5-(2-propyn-1-yloxy)-2-pyrazinecarboxamide]
5 | 0.201 | 0.000644 | 0.00604 | 1080 |  |  |  |  | CC#CCOc1cnc2c(Nc3cc(F)c(F)c([C@@]4(C)N=C(N)S[C@@]5(C(N)=O)C[C@H]54)c3)nccc2n1 [Example 920, (1S,5S,6S)-3-amino-5-(5-((2-(2-butyn-1-yloxy)pyrido[3,4-b]pyrazin-5-yl)amino)-2,3-difluorophenyl)-5-methyl-2-thia-4-azabicyclo[4.1.0]hept-3-ene-1-carboxamide]
6 |  |  |  |  | 5.53 | 0.0065 | 0.00121 | 2810 | COC[C@]12C[C@H]1[C@@](CF)(c1cc(NC(=O)c3ccc(Cl)cn3)ccc1F)N=C(N)S2 [Example 40, N-(3-((1S,5S,6S)-3-amino-5-(fluoromethyl)-1-(methoxymethyl)-2-thia-4-azabicyclo[4.1.0]hept-3-en-5-yl)-4-fluorophenyl)-5-chloro-2-pyridinecarboxamide]
7 | 4.7 | 0.0039 | 0.17 | > 400 |  |  |  |  | COC[C@]12C[C@H]1[C@@](C)(c1cc(NC(=O)c3cnc(OCC4(C)CC4)cn3)cc(F)c1F)N=C(N)S2 [Example 1061, N-(3-((1S,5S,6S)-3-amino-1-(methoxymethyl)-5-methyl-2-thia-4-azabicyclo[4.1.0]hept-3-en-5-yl)-4,5-difluorophenyl)-5-((1-methylcyclopropyl)methoxy)-2-pyrazinecarboxamide]
8 | 0.274 | 0.000416 | < 0.00203 | 834 |  |  |  |  | C/C(=C/[C@]12C[C@H]1[C@@](CF)(c1cc(NC(=O)c3ccc(Cl)cn3)ccc1F)N=C(N)S2)C(=O)N1CCOCC1 [Example 777, N-(3-((1R,5S,6S)-3-amino-5-(fluoromethyl)-1-((Z)-2-methyl-3-morpholino-3-oxoprop-1-en-1-yl)-2-thia-4-azabicyclo[4.1.0]hept-3-en-5-yl)-4-fluorophenyl)-5-chloropicolinamide]
9 | 2.3 | 0.0033 | 0.158 | > 400 |  |  |  |  | COC[C@]12C[C@H]1[C@@](C)(c1cc(NC(=O)c3cnc(OCC(F)F)cn3)ccc1F)N=C(N)S2 [Example 1057, N-(3-((1S,5S,6S)-3-amino-1-(methoxymethyl)-5-methyl-2-thia-4-azabicyclo[4.1.0]hept-3-en-5-yl)-4-fluorophenyl)-5-(2,2-difluoroethoxy)-2-pyrazinecarboxamide]
10 | 0.565 | 0.00551 | 0.0562 | 212 |  |  |  |  | C#CCOc1cnc(C(=O)Nc2cc(F)c(F)c([C@@]3(C)N=C(N)S[C@@]4(C(=O)OC)C[C@H]43)c2)cn1 [Example 975, methyl (1S,5S,6S)-3-amino-5-(2,3-difluoro-5-(((5-(2-propyn-1-yloxy)-2-pyrazinyl)carbonyl)amino)phenyl)-5-methyl-2-thia-4-azabicyclo[4.1.0]hept-3-ene-1-carboxylate]
11 | 0.0901 | 0.00152 | < 0.00203 | 44.1 |  |  |  |  | C#CCOc1cnc(C(=O)Nc2ccc(F)c([C@@]3(CF)N=C(N)S[C@@]4(c5c[nH]nn5)C[C@@H]34)c2)cn1 [Example 959, N-(3-((1S,5S,6S)-3-amino-5-(fluoromethyl)-1-(1H-1,2,3-triazol-4-yl)-2-thia-4-azabicyclo[4.1.0]hept-3-en-5-yl)-4-fluorophenyl)-5-(2-propyn-1-yloxy)-2-pyrazinecarboxamide]
12 | 58.9 | 0.139 | 0.397 | 1030 |  |  |  |  | C#C[C@H](C)Oc1cnc(C(=O)Nc2ccc(F)c([C@@]3(C)N=C(N)S[C@@]4(CF)C[C@H]43)c2)c(C)c1 [Example 651, N-(3-((1S,5S,6S)-3-amino-1-(fluoromethyl)-5-methyl-2-thia-4-azabicyclo[4.1.0]hept-3-en-5-yl)-4-fluorophenyl)-3-methyl-5-(((1S)-1-methyl-2-propyn-1-yl)oxy)-2-pyridinecarboxamide]
13 | 1.06 | 0.0352 | 0.0524 | 138 |  |  |  |  | C[C@]1(c2cc(NC(=O)c3ccc(OCC(F)(F)F)cn3)cc(F)c2F)N=C(N)S[C@@]2(C(=O)N3CCCC3)C[C@H]21 [Example 699, N-(3-((1S,5S,6S)-3-amino-5-methyl-1-(1-pyrrolidinylcarbonyl)-2-thia-4-azabicyclo[4.1.0]hept-3-en-5-yl)-4,5-difluorophenyl)-5-(2,2,2-trifluoroethoxy)-2-pyridinecarboxamide]
14 | 0.48 | 0.00338 | 0.0174 | 601 |  |  |  |  | C[C@]1(c2cc(Nc3nccc4nc(OCc5ncco5)cnc34)cnc2F)N=C(N)S[C@]2(CO)[C@H]1C2(F)F [Example 663, ((1S,5S,6R)-3-amino-7,7-difluoro-5-(2-fluoro-5-((2-(1,3-oxazol-2-ylmethoxy)pyrido[3,4-b]pyrazin-5-yl)amino)-3-pyridinyl)-5-methyl-2-thia-4-azabicyclo[4.1.0]hept-3-en-1-yl)methanol]
15 | 1.4 | 0.011 | 0.171 | 862 |  |  |  |  | COC[C@]12C[C@H]1[C@@](C)(c1cc(NC(=O)c3cnc(OCC4CCC4)cn3)ccc1F)N=C(N)S2 [Example 1054, N-(3-((1S,5S,6S)-3-amino-1-(methoxymethyl)-5-methyl-2-thia-4-azabicyclo[4.1.0]hept-3-en-5-yl)-4-fluorophenyl)-5-(cyclobutylmethoxy)-2-pyrazinecarboxamide]

From patent US20160046618A1, “Cyclopropyl Fused Thiazin-2-Amine Compounds as Beta-Secretase Inhibitors and Methods of Use” (AMGEN INC., priority 2014, published 2016)
